Measured values taken from patent US8975235B2, “Lysophosphatidic acid receptor antagonists” (InterMune, Inc., priority 2011, dated 2015).
pEC50: −log10 of the molar value.

Biological target: Human LPA1 (Homo sapiens, UniProt Q92633)
Experiment: Beta-Arrestin based assay for human LPA1R antagonists (PathHunter)
Assay type: cell-based
Parameters: host or cells: CHO
Details: CHO cells stably expressing ProLink tagged human LPA1R; agonist LPA 0.5 micromolar
Protocol: Beta-Arrestin Based Assays for Human LPA1R Antagonists and Agonists
A CHO cell line stably expressing the ProLink™ tagged human LPA1R was obtained from DiscoverX Inc, Fremont, Calif. In this system, β-Arrestin was fused to an N-terminal deletion mutant of β-galactosidase (termed the enzyme acceptor or EA), the human LPA1R was fused to a smaller (42 amino acids) weakly complementing fragment termed ProLink™. […] Cell handling and assays were performed according to protocols specified in the PathHunter® assays kits (DiscoverX, Fremont, Calif.). Assays were performed in quadruplicate in white 384 well plates. End point luminescence data were plotted and fit to a 4 parameter logistic function to obtain IC50 values. For antagonist assays, an […] concentration of agonist (LPA) equal to 0.5 micromolar was used.

Human LPA1, sequence (Q92633 whole entry): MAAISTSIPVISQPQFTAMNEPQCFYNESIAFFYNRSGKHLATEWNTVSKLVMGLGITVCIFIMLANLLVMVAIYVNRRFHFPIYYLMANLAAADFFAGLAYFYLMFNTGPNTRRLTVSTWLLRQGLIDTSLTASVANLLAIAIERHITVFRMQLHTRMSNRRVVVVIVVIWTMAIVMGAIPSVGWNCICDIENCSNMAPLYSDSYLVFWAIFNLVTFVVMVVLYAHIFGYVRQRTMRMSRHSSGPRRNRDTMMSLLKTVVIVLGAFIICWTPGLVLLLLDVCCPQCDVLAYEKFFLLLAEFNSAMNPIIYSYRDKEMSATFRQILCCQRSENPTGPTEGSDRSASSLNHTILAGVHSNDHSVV

Structure (SMILES) | pEC50
Cn1cnc(-c2ccc(-c3ccc(C4(C(=O)O)CC4)cc3)cc2)c1NC(=O)OCc1ccccc1 [Compound 167] | < 6.30
Cc1ccc2c(NC(=O)O[C@H](C)c3ccccc3)c(-c3ccc(-c4ccc(C5(C(=O)O)CC5)cc4)cc3)oc2n1 [Compound 215] | < 6.30
Cc1nc(NC(=O)O[C@H](C)c2ccccc2Cl)n(-c2ccc(-c3ccc(C4(C(=O)O)CC4)cc3)cc2)n1 [Compound 162] | < 6.30
Cc1cccc2c(NC(=O)O[C@H](C)c3ccccc3Cl)c(-c3ccc(-c4ccc(C5(C(=O)O)CC5)cc4)cc3)oc12 [Compound 51] | < 6.30
Cc1nc(-c2ccc(-c3ccc(C4(C(=O)O)CC4)cc3)cc2)c(NC(=O)OCc2ccccc2)o1 [Compound 156] | < 6.30
Cc1nsc(-c2ccc(-c3ccc(C4(C(=O)O)CC4)cc3)cc2)c1NC(=O)OCc1ccccn1 [Compound 72] | < 6.30
O=C(Nc1ncsc1-c1ccc(-c2ccc(C3(C(=O)O)CC3)cc2)cc1)OCc1ccccc1 [Compound 111] | < 6.30
Cc1noc2cc(-c3ccc(CC(=O)O)cc3)cc(NC(=O)O[C@H](C)c3ccccc3Cl)c12 [Compound 77] | < 6.30
Cc1nsc(-c2ccc(-c3ccc(C4(C(=O)O)CC4)cc3)cc2)c1NC(=O)OC1(c2ccccc2)CC1 [Compound 244] | < 6.30
O=C(Nc1cncn1-c1ccc(-c2ccc(C3(C(=O)O)CC3)cc2)cc1)OCc1ccccc1 [Compound 166] | < 6.30
Cc1nsc(-c2ccc(-c3ccc(C4(C(=O)O)CC4)cc3)cc2)c1NC(=O)OCc1ccc(Cl)cc1Cl [Compound 99] | < 6.30
C[C@@H](OC(=O)Nc1sc2ccccc2c1-c1ccc(-c2ccc(C3(C(=O)O)CC3)cc2)cc1)c1ccccc1 [Compound 207] | < 6.30
Cc1noc(-c2ccc(-c3ccc(N4CC[C@@H](C(=O)O)C4)cc3)cc2)c1NC(=O)O[C@H](C)c1ccccc1 [Compound 133] | < 6.30
O=C(O)Cc1ccc(-c2ccc(-c3cc(NC(=O)C4CCCC4)ccn3)cc2)cc1 [reference compound] | < 6.30
CN(CC(=O)N1CCN(c2ccc(CC(=O)O)cc2)CC1)C(=O)OCc1ccccc1 [Compound 271] | < 6.30
C[C@@H](NC(=O)OCc1ccccc1)C(=O)N1CCN(c2ccc(CC(=O)O)cc2)CC1 [Compound 273] | < 6.30
CN(CC(=O)N1CCC(c2ccc(CC(=O)O)cc2)CC1)C(=O)OCc1ccccc1 [Compound 258] | < 6.30
C[C@H](NC(=O)OCc1ccccc1)C(=O)N1CCN(c2ccc(CC(=O)O)cc2)CC1 [Compound 267] | < 6.30
Cc1nsc(-c2ccc(-c3ccc4c(ccn4CC(=O)O)c3)cc2)c1NC(=O)O[C@H](C)c1ccccc1Cl [Compound 104] | < 6.30
C[C@@H](OC(=O)Nc1c(-c2ccc(-c3ccc(C4(C(=O)O)CC4)cc3)cc2)oc2nc(C(F)(F)F)ccc12)c1ccccc1 [Compound 212] | < 6.30
O=C(O)Cc1ccc(N2CCN(C(=O)[C@H](NC(=O)OCc3ccccc3)c3ccccc3)CC2)cc1 [Compound 272] | < 6.30

Other lines, results leading:

pEC50 | Structure (SMILES)
> 7.30 | Cc1noc(-c2ccc3cc(C#CC4(C(=O)O)CC4)ccc3c2)c1NC(=O)OCc1ccccc1 [Compound 142]
> 7.30 | C[C@@H](OC(=O)Nc1c(-c2ccc(-c3ccc(C4(C(=O)O)CC4)cc3)c(F)c2)cnn1C)c1ccccc1 [Compound 203]
6.30 to 7.30 | Cc1nsc(-c2ccc3cc(C#CC4(C(=O)O)CC4)ccc3c2)c1NC(=O)O[C@H](C)c1ccccc1 [Compound 88]
6.30 to 7.30 | Cc1nsc(-c2ccc(-c3ccc(C4(C(=O)O)CC4)cc3)cc2)c1NC(=O)OCc1cccc(F)c1Cl [Compound 103]
> 7.30 | Cc1nsc(-c2ccc(-c3ccc(C(C(=O)O)c4ccccc4)cc3)cc2)c1NC(=O)O[C@H](C)c1ccccc1Cl (some centres unmarked) [Compound 69]
< 6.30 | Cc1nsc(-c2ccc(-c3ccc(C4(C(=O)O)CC4)cc3)cc2C#N)c1NC(=O)O[C@H](C)c1ccccc1 [Compound 189]
6.30 to 7.30 | C[C@@H](OC(=O)Nc1ncsc1-c1ccc(-c2ccc(C3(C(=O)O)CC3)cc2)cc1)c1ccccc1Cl [Compound 110]
6.30 to 7.30 | Cc1nsc(-c2ccc(-c3ccc(CC(=O)O)cc3Cl)cc2)c1NC(=O)O[C@H](C)c1ccccc1Cl [Compound 190]
6.30 to 7.30 | Cc1noc(C#Cc2ccc(C3(C(=O)O)CC3)cc2)c1NC(=O)O[C@H](C)c1ccccc1 [Compound 250]
> 7.30 | Cc1nsc(-c2ccc(-c3ccc(C4(C(=O)O)CC4)cc3)cc2)c1NC(=O)O[C@H](C)c1cccc(Cl)c1 [Compound 198]
6.30 to 7.30 | C[C@@H](OC(=O)Nc1cnnn1-c1ccc(-c2ccc(C3(C(=O)O)CC3)cc2)cc1)c1ccccc1 [Compound 66]
6.30 to 7.30 | Cc1cc(CC(=O)O)ccc1-c1ccc(-c2snc(C)c2NC(=O)O[C@H](C)c2ccccc2Cl)cc1 [Compound 193]
6.30 to 7.30 | C[C@@H](OC(=O)Nc1cnsc1-c1ccc(-c2ccc(C3(C(=O)O)CC3)cc2)cc1)c1ccccc1Cl [Compound 210]
6.30 to 7.30 | Cc1nsc(C#Cc2ccc3cc(CC(=O)O)ccc3c2)c1NC(=O)O[C@H](C)c1ccccc1Cl [Compound 94]
> 7.30 | Cc1noc(C#Cc2ccc3cc(C4(C(=O)O)CC4)ccc3c2)c1NC(=O)O[C@H](C)c1ccccc1 [Compound 130]
> 7.30 | Cc1nsc(-c2ccc(-c3ccc(C4(C(=O)O)CC4)cc3)cc2)c1NC(=O)OC(C)c1ccccc1 (centres unmarked) [Compound 253]
> 7.30 | C[C@@H](OC(=O)Nc1c(-c2ccc(-c3ccc(C4(C(=O)O)CC4)cc3)cc2)ncn1C)c1ccccc1Cl [Compound 168]
6.30 to 7.30 | Cc1nsc(-c2ccc3c(c2)CCc2cc(C4(C(=O)O)CC4)ccc2-3)c1NC(=O)OCc1ccccc1 [Compound 246]
6.30 to 7.30 | CCNC(=O)N1CC(C(=O)O)(c2ccc(-c3ccc(-c4onc(C)c4NC(=O)O[C@H](C)c4ccccc4Cl)cc3)cc2)C1 [Compound 40]
> 7.30 | Cc1nsc(-c2ccc(-c3ccc(C4(C(=O)O)CC4)cc3)c(Cl)c2)c1NC(=O)O[C@H](C)c1ccccc1 [Compound 188]
6.30 to 7.30 | C[C@@H](OC(=O)Nc1cncn1-c1ccc(-c2ccc(C3(C(=O)O)CC3)cc2)cc1)c1ccccc1 [Compound 165]
6.30 to 7.30 | Cc1nsc(-c2ccc(-c3ccc(C4(C(=O)O)CCOCC4)cc3)cc2)c1NC(=O)O[C@H](C)c1ccccc1 [Compound 243]
6.30 to 7.30 | C[C@@H](OC(=O)Nc1scnc1-c1ccc(-c2ccc(C3(C(=O)O)CC3)cc2)cc1)c1ccccc1 [Compound 106]
> 7.30 | C[C@@H](OC(=O)Nc1c(-c2cc(F)c(-c3ccc(C4(C(=O)O)CC4)cc3)cc2F)cnn1C)c1ccccc1Cl [Compound 199]
6.30 to 7.30 | O=C(Nc1c(-c2ccc(-c3ccc(C4(C(=O)O)CC4)cc3)cc2)oc2cnccc12)OCc1ccccc1 [Compound 151]
> 7.30 | Cc1nsc(-c2ccc(-c3ccc(C4(C(=O)O)CC4)cc3)cc2F)c1NC(=O)O[C@H](C)c1ccccc1Cl [Compound 119]
6.30 to 7.30 | Cc1noc(-c2ccc(-c3ccc4c(c3)CCCC4C(=O)O)cc2)c1NC(=O)O[C@H](C)c1ccccc1Cl (some centres unmarked) [Compound 24]
6.30 to 7.30 | Cc1noc(C#Cc2ccc3cc(CC(=O)O)ccc3c2)c1NC(=O)O[C@H](C)c1ccccc1Cl [Compound 129]
6.30 to 7.30 | C[C@@H](OC(=O)Nc1c(-c2ccc(-c3ccc(C4(C(=O)O)CC4)cc3)cc2)sc2ccccc12)c1ccccc1Cl [Compound 209]
